Where “and” joins values, the source holds several entries; their conditions need not be identical. Identical values can stand only once.
Biological target: T1, SV2A (Macaca fascicularis, UniProt Q4R4X3)
T1 construct: The current study evaluates [^18F]UCB-H pharmacokinetics in healthy NHPs; from tissue; host or cells: brain of living healthy cynomolgus monkeys (in vivo PET)
Experiment: Brain PET kinetic modelling (1TCM, 2TCM, 2TCM-c, Logan), test-retest
Format: in vivo, cynomolgus monkeys (Macaca fascicularis)
Experimental: All four non-human primates (NHP) underwent a 2-h (2 h) test and retest PET scan; two NHP underwent an additional 4-h (4 h) retest PET scan. Three NHP underwent one 4-h (4 h) displacement PET scan. Arterial blood sampling was performed during test and retest scans with PET imaging spaced by at least 3 weeks between each scan. To this end, the femoral artery opposite to the saphenous vein used for radioligand injection was cannulated. For the 2-h (2 h) scans, we collected in total 28 blood samples of 1 mL: 16 samples during the first 5 min followed by […] every 5 min and […] every 10 min. For the 4 h scans, we collected an additional 6 samples every 20 min during the last two hours (34 samples in total). Larger samples (2 – 3 mL) were collected at 5, 15, 30, 60, 90, 120 min (2 h) and at 180, 240 min (4 h) for metabolite analysis. Displacement of [^18F]UCB-H was done by intravenous (IV) administration 90 min after [^18F]UCB-H injection of a bolus of 30 mg/kg LEV, or of 80 µg/kg (≈250 nmol/kg) or 5 mg/kg (≈15 µmol/kg) of cold [^19F]-UCB-H. Full experimental design of all NHP is outlined in Additional file 1: Table 1.
PET imaging was performed on the microPET FOCUS220 (Siemens) under standard anesthesia and monitoring procedures. Data acquisition started with the IV bolus injection of [^18F]UCB-H (32.9 ± 1.0 MBq/kg, 0.35 ± 0.07 µg/kg). Dynamic PET images were reconstructed using standard OSEM-2D algorithms while correcting for radioactive decay, scatter, attenuation and detectors inhomogeneity, which were measured prior to PET scanning using respectively ^57Co and ^68Ge external sources.
PET image analysis was performed using PMOD software version 3.8 (PMOD Technologies Ltd., Zurich, Suisse). After individual co-registration of PET-MR images, a cynomolgus atlas published by Ballanger and coworkers was normalized to PET images to extract time activity curves in different brain regions. Volumes of interest (VOI) were cerebral white matter (16.7 cm^3), striatum (0.24 cm^3), thalamus (0.89 cm^3), cerebellum (3.83 cm^3), frontal—(2.50 cm^3), parietal—(5.35 cm^3), and temporal (8.22 cm^3) cortex, and whole brain (72.2 cm^3) as a composite region of all regions in the atlas. [^18F]UCB-H pharmacokinetics were evaluated by analyzing the time activity curves of the test- and retest scans using 1- and 2-tissue compartment models (unconstrained and constrained with global K1/k2 coupled fit across all regions, further referred to as 2TCM and 2TCM-c), and Logan graphical analysis with a fixed t* at 60 min [33] using the arterial plasma input function corrected for radio-metabolites to derive the volume of distribution in each region. Percentage standard error (%SE) was estimated from the theoretical parameter covariance matrix. Only reliable estimates (%SE less than 25%) were included in the current analyses. For the three drug studies, percent displacement of the total activity in the whole brain was estimated relative to an average baseline constructed from the two 4 h baseline studies. Briefly, Standardized Uptake Value (SUV) time activity curves (TACs) were calculated for the two baseline and the three displacement studies. Then, each curve was normalized to the SUV at t = 90 min, corresponding to the timeframe immediately before the administration of the drugs in the displacement studies. Baseline curves were averaged and the percent displacement of total activity was calculated as (baseline-displacement)/baseline at a given time post drug administration (see “Results”).
Statistical analysis was performed using R software (version 3.3.1.). Plasma, intact parent fraction and time activity curves were statistically compared between subjects using a one-factor variance analysis. Absolute Test–Retest variability (aTRV) of PET quantification parameters was calculated as ABS(test—retest) / AVERAGE(test, retest). […]

[1] = White Matter, Retest, individual NHP
[2] = White Matter, Test, individual NHP

T1 sequence (Q4R4X3 whole entry): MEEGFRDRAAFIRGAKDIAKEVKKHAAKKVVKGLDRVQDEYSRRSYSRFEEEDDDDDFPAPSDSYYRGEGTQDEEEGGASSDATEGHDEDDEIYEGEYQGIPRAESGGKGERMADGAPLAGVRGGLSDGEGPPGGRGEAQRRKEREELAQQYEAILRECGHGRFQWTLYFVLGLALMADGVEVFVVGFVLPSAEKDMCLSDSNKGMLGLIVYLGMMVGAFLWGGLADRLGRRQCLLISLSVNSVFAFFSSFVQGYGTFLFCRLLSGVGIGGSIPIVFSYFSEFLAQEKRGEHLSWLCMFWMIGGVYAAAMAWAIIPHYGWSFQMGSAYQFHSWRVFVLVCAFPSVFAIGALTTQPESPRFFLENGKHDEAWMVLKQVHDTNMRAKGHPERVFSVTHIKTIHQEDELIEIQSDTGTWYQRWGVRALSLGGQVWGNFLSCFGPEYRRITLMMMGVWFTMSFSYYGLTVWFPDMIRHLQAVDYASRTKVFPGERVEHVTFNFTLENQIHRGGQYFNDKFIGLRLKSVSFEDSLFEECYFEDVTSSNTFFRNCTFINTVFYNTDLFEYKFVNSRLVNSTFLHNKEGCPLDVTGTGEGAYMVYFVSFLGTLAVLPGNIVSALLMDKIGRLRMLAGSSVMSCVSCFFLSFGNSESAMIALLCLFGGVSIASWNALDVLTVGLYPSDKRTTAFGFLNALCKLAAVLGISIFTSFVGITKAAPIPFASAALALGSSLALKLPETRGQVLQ

k3/k4 (2TCM-c) (Thalamus, Retest, individual NHP): 0.64 and 2.00 and 0.90 and 0.33
VT (1TCM) (Thalamus, Retest, mean): 13.4 mL/cm^3
VT (2TCM) (Thalamus, Retest, mean): 13.0 mL/cm^3
VT (2TCM-c) (Thalamus, Retest, mean): 14.2 mL/cm^3
VT (Logan (t* = 60)) (Thalamus, Retest, mean): 14.3 mL/cm^3
k3/k4 (BPND) (2TCM-c) (Thalamus, Retest, mean): 0.97
VT (2TCM) (Thalamus, Test, individual NHP): 13.65 ml/cm^3 and 17.60 ml/cm^3
k3/k4 (2TCM) (Thalamus, Test, individual NHP): 0.82
k3/k4 (2TCM-c) (Thalamus, Test, individual NHP): 1.00 and 1.56 and 1.18 and 0.38
VT (1TCM) (Thalamus, Test, mean): 13.3 mL/cm^3
VT (2TCM) (Thalamus, Test, mean): 15.6 mL/cm^3
VT (2TCM-c) (Thalamus, Test, mean): 15.0 mL/cm^3
VT (Logan (t* = 60)) (Thalamus, Test, mean): 14.9 mL/cm^3
k3/k4 (BPND) (2TCM-c) (Thalamus, Test, mean): 1.03
k3/k4 (2TCM) [1]: 6.72
k3/k4 (2TCM-c) [1]: 0.46 and 1.76 and 0.27
VT (2TCM) [2]: 11.61 ml/cm^3 and 16.36 ml/cm^3
k3/k4 (2TCM) [2]: 0.94
k3/k4 (2TCM-c) [2]: 1.41 and 1.09
ICC of 2TCM-c VT (White matter): 0.43
ICC of Logan (t* = 60) VT (White matter): 0.62
aTRV of 2TCM-c VT (White matter): 24%
aTRV of Logan (t* = 60) VT (White matter): 13%
VT (1TCM) (White matter, Retest, mean): 12.5 mL/cm^3
VT (2TCM) (White matter, Retest, mean): 12.6 mL/cm^3
VT (2TCM-c) (White matter, Retest, mean): 13.7 mL/cm^3
VT (Logan (t* = 60)) (White matter, Retest, mean): 13.6 mL/cm^3
k3/k4 (BPND) (2TCM-c) (White matter, Retest, mean): 0.83
VT (1TCM) (White matter, Test, mean): 12.3 mL/cm^3
VT (2TCM) (White matter, Test, mean): 14.0 mL/cm^3
VT (2TCM-c) (White matter, Test, mean): 13.8 mL/cm^3
VT (Logan (t* = 60)) (White matter, Test, mean): 13.9 mL/cm^3
k3/k4 (BPND) (2TCM-c) (White matter, Test, mean): 1.25
BPND lower compared to [^11C]UCB-J and other [^18F]-labelled SV2A radioligands (cynomolgus NHP): 3 to fourfold lower
VT lower compared to [^11C]UCB-J and other [^18F]-labelled SV2A radioligands (cynomolgus NHP): ~ 50%
free fraction in tissue fND (cynomolgus monkey, in vivo): 6.1 ± 1.3% and ~ 6%
tissue influx parameter K1 (grey matter regions, 2TCM and 2TCM-c): 0.37 ± 0.01 mL/cm^3/min
average VND (K1/k2 from 2TCM-c) (over all VOIs and animals): 7.89 ± 1.23 mL/cm^3
SMILES: O=C1C[C@H](c2cc(F)c(F)c(F)c2)CN1Cc1ccncc1[18F] [[^18F]UCB-H]
K1 (2TCM) (Thalamus, Test, individual NHP): 0.21 ml/cm^3 /min and 0.24 ml/cm^3 /min and 0.45 ml/cm^3 /min and 0.53 ml/cm^3 /min
K1 (2TCM-c) (Thalamus, Test, individual NHP): 0.20 ml/cm^3 /min and 0.25 ml/cm^3 /min and 0.48 ml/cm^3 /min and 0.54 ml/cm^3 /min
K1/k2 (2TCM) (Thalamus, Test, individual NHP): 11.03 ml/cm^3 and 7.51 ml/cm^3 and 12.45 ml/cm^3 and 12.69 ml/cm^3
K1/k2 (2TCM-c) (Thalamus, Test, individual NHP): 7.86 ml/cm^3 and 4.35 ml/cm^3 and 8.22 ml/cm^3 and 10.99 ml/cm^3
VT (1TCM) (Thalamus, Test, individual NHP): 12.88 ml/cm^3 and 10.42 ml/cm^3 and 16.04 ml/cm^3 and 14.02 ml/cm^3
VT (2TCM-c) (Thalamus, Test, individual NHP): 17.47 ml/cm^3 and 11.10 ml/cm^3 and 16.27 ml/cm^3 and 15.12 ml/cm^3
VT (Logan) (Thalamus, Test, individual NHP): 14.58 ml/cm3 and 12.30 ml/cm3 and 17.00 ml/cm3 and 15.59 ml/cm3
K1 (2TCM) [1]: 0.29 ml/cm^3 /min and 0.49 ml/cm^3 /min and 0.32 ml/cm^3 /min and 0.35 ml/cm^3 /min
K1 (2TCM-c) [1]: 0.30 ml/cm^3 /min and 0.44 ml/cm^3 /min and 0.32 ml/cm^3 /min and 0.35 ml/cm^3 /min
K1/k2 (2TCM) [1]: 1.66 ml/cm^3 and 10.04 ml/cm^3 and 11.74 ml/cm^3
K1/k2 (2TCM-c) [1]: 7.25 ml/cm^3 and 4.64 ml/cm^3 and 9.07 ml/cm^3 and 10.70 ml/cm^3
VT (1TCM) [1]: 10.59 ml/cm^3 and 12.63 ml/cm^3 and 13.80 ml/cm^3 and 12.91 ml/cm^3
VT (2TCM) [1]: 10.58 ml/cm^3 and 12.82 ml/cm^3 and 14.29 ml/cm^3
VT (2TCM-c) [1]: 10.59 ml/cm^3 and 12.79 ml/cm^3 and 18.23 ml/cm^3 and 13.35 ml/cm^3
VT (Logan) [1]: 11.11 ml/cm3 and 12.93 ml/cm3 and 16.97 ml/cm3 and 13.41 ml/cm3
K1 (2TCM) [2]: 0.17 ml/cm^3 /min and 0.19 ml/cm^3 /min and 0.41 ml/cm^3 /min
K1 (2TCM-c) [2]: 0.17 ml/cm^3 /min and 0.20 ml/cm^3 /min and 0.42 ml/cm^3 /min
K1/k2 (2TCM) [2]: 9.57 ml/cm^3 and 6.00 ml/cm^3 and 9.76 ml/cm^3 and 11.24 ml/cm^3
K1/k2 (2TCM-c) [2]: 7.86 ml/cm^3 and 4.35 ml/cm^3 and 8.22 ml/cm^3 and 10.99 ml/cm^3
VT (1TCM) [2]: 12.00 ml/cm^3 and 9.44 ml/cm^3 and 14.88 ml/cm^3 and 12.88 ml/cm^3
VT (2TCM-c) [2]: 15.44 ml/cm^3 and 10.47 ml/cm^3 and 15.61 ml/cm^3
VT (Logan) [2]: 14.19 ml/cm3 and 11.20 ml/cm3 and 15.99 ml/cm3 and 14.37 ml/cm3

From article PMC8026785, “The pharmacokinetics of [^18F]UCB-H revisited in the healthy non-human primate brain” (EJNMMI Research, 2021)
